{
  "source": "ChEMBL document CHEMBL5625262",
  "about": "“Discovery and first-time disclosure of CVN766, an exquisitely selective orexin 1 receptor antagonist” (Bioorg Med Chem Lett, 2024)",
  "key": {"[1]": {"target": "T1, Orexin/Hypocretin receptor type 1 (Homo sapiens, UniProt O43613)", "T1 sequence (O43613 whole entry)": "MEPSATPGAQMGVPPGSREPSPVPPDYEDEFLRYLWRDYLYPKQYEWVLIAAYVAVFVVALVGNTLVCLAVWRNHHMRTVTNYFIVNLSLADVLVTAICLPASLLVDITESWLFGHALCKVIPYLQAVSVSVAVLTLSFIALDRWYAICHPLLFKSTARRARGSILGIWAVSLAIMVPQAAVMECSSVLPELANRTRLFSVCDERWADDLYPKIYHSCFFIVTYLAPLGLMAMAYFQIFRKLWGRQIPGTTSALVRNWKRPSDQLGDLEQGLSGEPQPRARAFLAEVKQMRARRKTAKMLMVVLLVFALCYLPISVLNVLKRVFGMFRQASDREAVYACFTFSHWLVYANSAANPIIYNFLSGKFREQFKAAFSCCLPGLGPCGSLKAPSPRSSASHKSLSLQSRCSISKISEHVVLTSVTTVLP", "assay": "Antagonist activity at human Ox1R overexpressed in rat Chem-1 cells assessed as inhibition of orexin A induced calcium flux preincubated for 15 mins followed by orexin A addition by FLIPR analysis", "assay_type": "functional, cell-based"}, "Orexin receptor type 2 [2]": {"target": "T2, Orexin receptor type 2 (Homo sapiens, UniProt O43614)", "T2 sequence (O43614 whole entry)": "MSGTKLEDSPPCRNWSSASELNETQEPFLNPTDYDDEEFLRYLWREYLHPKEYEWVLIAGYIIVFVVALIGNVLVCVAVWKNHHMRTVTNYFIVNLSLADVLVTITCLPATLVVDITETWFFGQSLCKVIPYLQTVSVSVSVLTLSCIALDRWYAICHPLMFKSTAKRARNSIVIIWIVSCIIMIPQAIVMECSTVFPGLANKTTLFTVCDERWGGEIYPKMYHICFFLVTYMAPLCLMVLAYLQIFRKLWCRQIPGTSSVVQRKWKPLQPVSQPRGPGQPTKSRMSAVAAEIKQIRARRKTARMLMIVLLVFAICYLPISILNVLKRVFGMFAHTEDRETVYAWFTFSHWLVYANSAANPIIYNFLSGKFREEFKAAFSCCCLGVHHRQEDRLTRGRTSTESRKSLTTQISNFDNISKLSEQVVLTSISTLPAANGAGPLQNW", "assay": "Antagonist activity at human Ox2R overexpressed in rat Chem-1 cells assessed as inhibition of orexin A induced calcium flux preincubated for 15 mins followed by orexin A addition by FLIPR analysis", "assay_type": "functional, cell-based"}, "[3]": {"assay": "Metabolic stability in rat liver microsomes assessed as intrinsic clearance", "assay_type": "ADME, Microsome", "settings": "read-out: CLH"}, "[4]": {"assay": "Metabolic stability in mouse liver microsomes assessed as intrinsic clearance", "assay_type": "ADME, Microsome", "settings": "read-out: CLH"}, "[5]": {"target": "T3, Orexin receptor type 2 (Homo sapiens) (UniProt O43614)", "T3 sequence (whole entry)": "T2 sequence (O43614 whole entry)", "assay": "Antagonist activity at human Ox2R overexpressed in rat Chem-1 cells assessed as inhibition of orexin A induced calcium flux at 10 uM preincubated for 15 mins followed by orexin A addition by FLIPR analysis relative to control", "assay_type": "functional, cell-based"}, "[6]": {"assay": "Metabolic stability in human liver microsomes assessed as intrinsic clearance", "assay_type": "ADME, Microsome", "settings": "read-out: CLH"}, "[7]": {"target": "T1, Orexin/Hypocretin receptor type 1", "assay": "Displacement of 3H-SB-674042 from human Ox1R expressed in CHO cell membranes by liquid scintillation counting method", "parameters": "species or system Membrane"}, "Orexin receptor type 2 [8]": {"target": "T2, Orexin receptor type 2", "assay": "Binding affinity to Ox2R (unknown origin)"}, "[9]": {"assay": "Tmax in Sprague-Dawley rat at 3 mg/kg, po measured for 8 hrs", "assay_type": "ADME, organism-based", "settings": "in vivo"}, "[10]": {"target": "T4, Orexin/Hypocretin receptor type 1 (Homo sapiens) (UniProt O43613)", "T4 sequence (whole entry)": "T1 sequence (O43613 whole entry)", "settings": "CHO, Membrane, filed as antagonist"}, "[11]": {"assay": "Selectivity ratio of pKi for displacement of 3H-SB-674042 from human Ox1R expressed in CHO cell membranes to pKi for Ox2R (unknown origin)"}, "[12]": {"assay": "Volume of distribution in po or iv dosed Sprague-Dawley rat", "assay_type": "ADME, organism-based", "settings": "in vivo"}, "[13]": {"assay": "In vivo receptor occupancy at Ox1R in Sprague-Dawley rat at 3 mg/kg, po in presence of [3H]-SB-674042 measured for 8 hrs", "assay_type": "ADME, organism-based"}, "[14]": {"assay": "Ratio of drug concentration in brain to plasma of po and iv dosed Sprague-Dawley rat", "assay_type": "ADME, organism-based"}, "[15]": {"assay": "Oral bioavailability in Sprague-Dawley rat", "assay_type": "ADME, organism-based", "settings": "in vivo"}, "[16]": {"assay": "Ratio of unbound drug concentration in brain to plasma of po and iv dosed Sprague-Dawley rat", "assay_type": "ADME, organism-based"}, "[17]": {"assay": "Oral bioavailability in dog", "assay_type": "ADME, organism-based, Canis lupus familiaris", "settings": "in vivo"}, "[18]": {"assay": "Clearance in dog", "assay_type": "ADME, Canis lupus familiaris", "settings": "in vivo"}},
  "data": [
    {"smiles": "Cc1ccc(-n2nccn2)c(C(=O)N[C@H]2CCC[C@@H]2Nc2nc3ccc(F)cc3s2)c1", "values": [
      {"measurement": "IC50", "setting": "[1]", "result": 17, "unit": "nM"},
      {"measurement": "IC50", "setting": "Orexin receptor type 2 [2]", "result": 2460, "unit": "nM"}
    ]},
    {"smiles": "Cc1ccc(-n2nccn2)c(C(=O)N[C@H]2CCC[C@@H]2Nc2cnc3ccccc3n2)c1", "values": [
      {"measurement": "IC50", "setting": "[1]", "result": 16, "unit": "nM"},
      {"measurement": "microsomal CLint", "setting": "[3]", "result": 335, "unit": "µL/min/mg"},
      {"measurement": "microsomal CLint", "setting": "[4]", "result": 442, "unit": "µL/min/mg"},
      {"measurement": "inhibition", "setting": "[5]; filed as antagonist", "result": 60, "unit": "%"},
      {"measurement": "microsomal CLint", "setting": "[6]", "result": 24, "unit": "µL/min/mg"}
    ]},
    {"smiles": "C[C@]1(Nc2cnc(C(F)(F)F)cn2)CCC[C@@H]1NC(=O)c1ccccc1-n1nccn1", "values": [
      {"measurement": "IC50", "setting": "[1]", "result": 6, "unit": "nM"},
      {"measurement": "inhibition", "setting": "[5]", "result": 25.3, "unit": "%"}
    ]},
    {"smiles": "CCc1nc(C(F)(F)F)cnc1N[C@H]1CCC[C@@H]1NC(=O)c1ccccc1-n1nccn1", "values": [
      {"measurement": "inhibition", "setting": "[5]", "result": 25.6, "unit": "%"}
    ]},
    {"smiles": "Cc1nc(C(F)(F)F)cnc1N[C@H]1CCC[C@@H]1NC(=O)c1ccccc1-n1nccn1", "values": [
      {"measurement": "IC50", "setting": "[1]", "result": 21, "unit": "nM"},
      {"measurement": "Ki", "setting": "[7]", "result": 20.9, "unit": "nM"},
      {"measurement": "inhibition", "setting": "[5]", "result": 22, "unit": "%"}
    ]},
    {"smiles": "C[C@]1(Nc2cnc(C(F)(F)F)cn2)CCC[C@@H]1NC(=O)c1ncccc1-n1nccn1", "values": [
      {"measurement": "IC50", "setting": "[1]", "result": 16, "unit": "nM"},
      {"measurement": "Ki", "setting": "[7]", "result": 18.2, "unit": "nM"},
      {"measurement": "pKi", "setting": "[7]; cho", "result": 7.74},
      {"measurement": "inhibition", "setting": "[5]", "result": 21.1, "unit": "%"}
    ]},
    {"smiles": "CCc1nc(C(F)(F)F)cnc1N[C@H]1CCC[C@@H]1NC(=O)c1ncccc1-n1nccn1", "note": "[CVN-766]", "values": [
      {"measurement": "IC50", "setting": "[1]", "result": 8, "unit": "nM"},
      {"measurement": "Ki", "setting": "[7]", "result": 7.24, "unit": "nM"},
      {"measurement": "Ki", "setting": "Orexin receptor type 2 [8]", "result": 12.9, "unit": "µM"},
      {"measurement": "Tmax", "setting": "[9]", "result": 1, "unit": "h"},
      {"measurement": "T1/2", "setting": "[10]", "result": 2.2, "unit": "h"},
      {"measurement": "Ratio pKi", "setting": "[11]", "result": "> 1000"},
      {"measurement": "Vd", "setting": "[12]", "result": 1.02, "unit": "L/kg"},
      {"measurement": "Occ", "setting": "[13]", "result": 79.9, "unit": "%"},
      {"measurement": "microsomal CLint", "setting": "[3]", "result": 13, "unit": "µL/min/mg"},
      {"measurement": "microsomal CLint", "setting": "[4]", "result": "< 3", "unit": "µL/min/mg"},
      {"measurement": "BPR", "setting": "[14]", "result": 0.6},
      {"measurement": "bioavailability", "setting": "[15]", "result": 18, "unit": "%"},
      {"measurement": "inhibition", "setting": "[5]", "result": 37.5, "unit": "%"},
      {"measurement": "microsomal CLint", "setting": "[6]", "result": "< 3", "unit": "µL/min/mg"},
      {"measurement": "K(p,uu,brain)", "setting": "[16]", "result": 0.77},
      {"measurement": "bioavailability", "setting": "[17]", "result": 77, "unit": "%"},
      {"measurement": "clearance", "setting": "[18]", "result": 2.2, "unit": "mL/min/kg"}
    ]},
    {"smiles": "Cc1ccc(-n2nccn2)c(C(=O)N2CCN(c3nc4cc(Cl)ccc4o3)CC[C@H]2C)c1", "values": [
      {"measurement": "T1/2", "setting": "[10]", "result": 1.25, "unit": "h"}
    ]},
    {"smiles": "CCc1nc(C(F)(F)F)cnc1N[C@@H]1CCC[C@H]1NC(=O)c1ncccc1-n1nccn1", "values": [
      {"measurement": "IC50", "setting": "[1]", "result": 1230, "unit": "nM"},
      {"measurement": "inhibition", "setting": "[5]; filed as antagonist", "result": 71.4, "unit": "%"}
    ]},
    {"smiles": "O=C(N[C@H]1CCC[C@@H]1Nc1cnc(C(F)(F)F)cn1)c1ccccc1-n1nccn1", "values": [
      {"measurement": "Ki", "setting": "[7]", "result": 81.3, "unit": "nM"},
      {"measurement": "inhibition", "setting": "[5]", "result": 12, "unit": "%"}
    ]},
    {"smiles": "CC(C)c1cnc(N[C@H]2CCC[C@@H]2NC(=O)c2ccccc2-n2nccn2)cn1", "values": [
      {"measurement": "microsomal CLint", "setting": "[3]", "result": 119, "unit": "µL/min/mg"},
      {"measurement": "microsomal CLint", "setting": "[4]", "result": 403, "unit": "µL/min/mg"},
      {"measurement": "inhibition", "setting": "[5]", "result": 12, "unit": "%"},
      {"measurement": "microsomal CLint", "setting": "[6]", "result": 23, "unit": "µL/min/mg"}
    ]},
    {"smiles": "Cc1nc(C(F)(F)F)cnc1N[C@H]1CCC[C@@H]1NC(=O)c1ncccc1-n1nccn1", "values": [
      {"measurement": "IC50", "setting": "[1]", "result": 32, "unit": "nM"},
      {"measurement": "inhibition", "setting": "[5]", "result": 11.4, "unit": "%"}
    ]}
  ]
}
